Results as given in patent US6939992B2, “Polymorphic forms of sertraline hydrochloride” (Ciba Specialty Chemicals Corporation, priority 1999, dated 2005).
Counter-ions that a name gives are not always drawn.

What was measured:
[1] = Thermal stability / transformation on heating in a DSC apparatus; type: physicochemical
Method: The crystalline polymorph CSC2 upon heating is transformed into form V at temperatures of about >120° C., whereupon a second transformation takes place into form III at temperatures of about >160° C. (experiment performed in a DSC apparatus with heating rate of 20° C./minute).

[2] = Solubility of the polymorphic form; type: physicochemical
[3] = disclosed in U.S. Pat. No. 5,248,699; cited from earlier work
[4] = DSC apparatus, heating rate of 20° C./minute

SMILES	thermal stability [1]	temperature of second transformation into form III upon heating [1, 4] [°C]	temperature of transformation into form V upon heating [1, 4] [°C]	solubility [2]	stability compared with the other crystalline forms of sertraline hydrochloride [3]
CN[C@H]1CC[C@@H](c2ccc(Cl)c(Cl)c2)c2ccccc21 [CSC2, (1S-cis)-4-(3,4-dichlorophenyl)-1,2,3,4-tetrahydro-N-methyl-1-naphthalenamine hydrochloride]	good	> 160	> 120	high	–
CN[C@H]1CC[C@@H](c2ccc(Cl)c(Cl)c2)c2ccccc21 [form I, sertraline hydrochloride]	–	–	–	–	greatest stability
